Our source for the solubility values is patent publication US7951399B2, “Process for activation of drugs in a vibrational mill” (Eurand Pharmaceuticals Ltd., priority 2001, dated 2011).

This data set can be described thus: physchem.

The structures appear in SMILES notation. Converted amounts (≈) assume the structure as drawn.

By solubility is commonly meant how much of the substance goes into solution per volume. High values mean a readily soluble substance, low ones a poorly soluble substance. With `CC(C)Cc1ccc(C(C)C(=O)O)cc1` (stereo not shown) [Ibuprofen], the solubility amounted to 73 µg/mL (≈ 354 µM).
